Measurements as given in publication PMC2248166, “Quantitative peptide binding motifs for 19 human and mouse MHC class I molecules derived using positional scanning combinatorial peptide libraries” (Immunome Research, 2008).
Where a SMILES comes first, the peptide text is derived from it.

Biological target: HLA A*3001 (Homo sapiens, UniProt P04439, D140H/D185E/E176W/F33S/G80R/H175R/K168Q/R138E/R41S)
Test: biochemical
Format: binding

HLA A*3001, sequence (P04439 25-365 limits assumed, stated change not applied): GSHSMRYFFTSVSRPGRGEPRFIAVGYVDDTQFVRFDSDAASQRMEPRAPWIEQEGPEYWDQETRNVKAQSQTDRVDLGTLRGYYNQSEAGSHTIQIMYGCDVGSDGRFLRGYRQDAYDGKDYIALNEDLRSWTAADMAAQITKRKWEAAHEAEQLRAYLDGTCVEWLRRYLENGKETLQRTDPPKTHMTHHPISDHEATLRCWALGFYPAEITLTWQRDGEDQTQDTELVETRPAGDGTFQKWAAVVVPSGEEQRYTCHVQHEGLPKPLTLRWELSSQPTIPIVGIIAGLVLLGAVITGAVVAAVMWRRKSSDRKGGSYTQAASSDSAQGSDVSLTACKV

Row | SMILES | IC50 [nM]
1 | CC[C@H](C)[C@H](NC(=O)[C@@H](NC(=O)[C@H](CO)NC(=O)[C@@H](N)CCSC)C(C)C)C(=O)N[C@@H](CO)C(=O)N[C@@H](CC(N)=O)C(=O)N1CCC[C@H]1C(=O)N[C@@H](CO)C(=O)N[C@@H](CCCCN)C(=O)O [3102.0255] (H-MSVISNPSK-OH) | 20
2 | CC(C)C[C@H](NC(=O)[C@H](CCCCN)NC(=O)[C@H](Cc1ccccc1)NC(=O)[C@@H](N)CCCCN)C(=O)N[C@H](C(=O)N[C@@H](CC(C)C)C(=O)N1CCC[C@H]1C(=O)N[C@@H](CC(N)=O)C(=O)N[C@@H](CCCCN)C(=O)O)[C@@H](C)O [3102.0261] (H-KFKLTLPNK-OH) | 12
3 | CC(C)C[C@H](NC(=O)[C@H](CCCCN)NC(=O)[C@H](CCCCN)NC(=O)[C@@H](NC(=O)[C@@H](N)CCCCN)C(C)C)C(=O)N[C@@H](CC(N)=O)C(=O)N[C@@H](CCCNC(=N)N)C(=O)N[C@@H](CS)C(=O)N[C@@H](C)C(=O)O [3102.0262] (H-KVKKLNRCA-OH) | 3.1
4 | CSCC[C@H](NC(=O)[C@H](Cc1ccccc1)NC(=O)[C@H](CCCCN)NC(=O)[C@H](CCCNC(=N)N)NC(=O)[C@H](CO)NC(=O)[C@@H](N)CCSC)C(=O)N[C@@H](CCC(N)=O)C(=O)N[C@H](C(=O)N[C@@H](Cc1ccc(O)cc1)C(=O)O)C(C)C [3102.0264] (H-MSRKFMQVY-OH) | 1.5
5 | CC(C)C[C@H](NC(=O)[C@@H](NC(=O)[C@H](CS)NC(=O)[C@H](C)NC(=O)[C@H](Cc1ccccc1)NC(=O)[C@H](CCCCN)NC(=O)[C@H](CO)NC(=O)[C@@H](N)CO)C(C)C)C(=O)N[C@@H](CCCCN)C(=O)O [3102.0265] (H-SSKFACVLK-OH) | 9.9
6 | C[C@H](NC(=O)[C@H](CCCNC(=N)N)NC(=O)[C@H](CC(N)=O)NC(=O)[C@H](CCC(N)=O)NC(=O)[C@H](Cc1ccccc1)NC(=O)[C@H](CCCCN)NC(=O)[C@@H](NC(=O)[C@@H](N)CCCNC(=N)N)[C@@H](C)O)C(=O)N[C@@H](CCCCN)C(=O)O [3102.0266] (H-RTKFQNRAK-OH) | 0.16
7 | CC[C@H](C)[C@H](NC(=O)[C@H](CCCCN)NC(=O)[C@H](Cc1c[nH]cn1)NC(=O)[C@@H](N)CCCCN)C(=O)N[C@@H](Cc1ccccc1)C(=O)N[C@@H](CO)C(=O)N1CCC[C@H]1C(=O)N[C@@H](Cc1ccccc1)C(=O)N[C@@H](CCCCN)C(=O)O [3102.0267] (H-KHKIFSPFK-OH) | 0.89
8 | CSCC[C@H](NC(=O)[C@H](CCCNC(=N)N)NC(=O)[C@H](Cc1ccc(O)cc1)NC(=O)[C@@H](N)CCCNC(=N)N)C(=O)N[C@@H](Cc1c[nH]cn1)C(=O)N1CCC[C@H]1C(=O)N[C@@H](CCSC)C(=O)N[C@@H](CO)C(=O)N[C@@H](CCCCN)C(=O)O [3102.0268] (H-RYRMHPMSK-OH) | 0.068
9 | CC[C@H](C)[C@H](NC(=O)[C@H](CCC(N)=O)NC(=O)[C@@H](NC(=O)[C@@H](NC(=O)[C@H](C)NC(=O)[C@H](CCCCN)NC(=O)[C@@H](NC(=O)[C@@H](N)[C@@H](C)O)[C@@H](C)O)[C@@H](C)O)[C@@H](C)O)C(=O)N[C@@H](C)C(=O)O [3102.0270] (H-TTKATTQIA-OH) | 6.5
10 | CC(C)[C@H](NC(=O)[C@H](Cc1c[nH]cn1)NC(=O)[C@@H](NC(=O)[C@H](CC(=O)O)NC(=O)[C@H](CCCCN)NC(=O)[C@H](CO)NC(=O)[C@@H](N)CCCNC(=N)N)[C@@H](C)O)C(=O)N[C@@H](Cc1ccccc1)C(=O)N[C@@H](C)C(=O)O [3102.0271] (H-RSKDTHVFA-OH) | 0.019
11 | CC[C@H](C)[C@H](NC(=O)[C@H](Cc1ccc(O)cc1)NC(=O)[C@@H](NC(=O)[C@@H](N)CCCCN)C(C)C)C(=O)NCC(=O)N[C@@H](Cc1ccc(O)cc1)C(=O)N[C@@H](CS)C(=O)N[C@@H](CCSC)C(=O)N[C@@H](C)C(=O)O [3102.0272] (H-KVYIGYCMA-OH) | 2.6
12 | CC(C)C[C@H](N)C(=O)N[C@@H](C)C(=O)N[C@@H](CCCNC(=N)N)C(=O)N[C@@H](CCCNC(=N)N)C(=O)N1CCC[C@H]1C(=O)N[C@H](C(=O)N1CCC[C@H]1C(=O)N[C@@H](CCCCN)C(=O)N[C@@H](CCCCN)C(=O)O)[C@@H](C)O [3102.0275] (H-LARRPTPKK-OH) | 10
